The results in this text go back to US12617795B2, “Substituted 6,7-dihydro-5H-pyrrolo[3,4-d]pyrimidines, 5,7-dihydrofuro[3,4-d]pyrimidines, and pyrido[2,3-d]pyrimidines as KCC2 modulators” (Astrazeneca AB, priority 2020, dated 2026).

In this assay the target is T1, KCC2 (Homo sapiens, UniProt Q9H2X9).
T1 construct: expressed in transfected cells; host or cells: HEK293 cells electroporated (Maxcyte STX) with the pcDNA3.1 KCC2 plasmid
T1 sequence (Q9H2X9 1-1139): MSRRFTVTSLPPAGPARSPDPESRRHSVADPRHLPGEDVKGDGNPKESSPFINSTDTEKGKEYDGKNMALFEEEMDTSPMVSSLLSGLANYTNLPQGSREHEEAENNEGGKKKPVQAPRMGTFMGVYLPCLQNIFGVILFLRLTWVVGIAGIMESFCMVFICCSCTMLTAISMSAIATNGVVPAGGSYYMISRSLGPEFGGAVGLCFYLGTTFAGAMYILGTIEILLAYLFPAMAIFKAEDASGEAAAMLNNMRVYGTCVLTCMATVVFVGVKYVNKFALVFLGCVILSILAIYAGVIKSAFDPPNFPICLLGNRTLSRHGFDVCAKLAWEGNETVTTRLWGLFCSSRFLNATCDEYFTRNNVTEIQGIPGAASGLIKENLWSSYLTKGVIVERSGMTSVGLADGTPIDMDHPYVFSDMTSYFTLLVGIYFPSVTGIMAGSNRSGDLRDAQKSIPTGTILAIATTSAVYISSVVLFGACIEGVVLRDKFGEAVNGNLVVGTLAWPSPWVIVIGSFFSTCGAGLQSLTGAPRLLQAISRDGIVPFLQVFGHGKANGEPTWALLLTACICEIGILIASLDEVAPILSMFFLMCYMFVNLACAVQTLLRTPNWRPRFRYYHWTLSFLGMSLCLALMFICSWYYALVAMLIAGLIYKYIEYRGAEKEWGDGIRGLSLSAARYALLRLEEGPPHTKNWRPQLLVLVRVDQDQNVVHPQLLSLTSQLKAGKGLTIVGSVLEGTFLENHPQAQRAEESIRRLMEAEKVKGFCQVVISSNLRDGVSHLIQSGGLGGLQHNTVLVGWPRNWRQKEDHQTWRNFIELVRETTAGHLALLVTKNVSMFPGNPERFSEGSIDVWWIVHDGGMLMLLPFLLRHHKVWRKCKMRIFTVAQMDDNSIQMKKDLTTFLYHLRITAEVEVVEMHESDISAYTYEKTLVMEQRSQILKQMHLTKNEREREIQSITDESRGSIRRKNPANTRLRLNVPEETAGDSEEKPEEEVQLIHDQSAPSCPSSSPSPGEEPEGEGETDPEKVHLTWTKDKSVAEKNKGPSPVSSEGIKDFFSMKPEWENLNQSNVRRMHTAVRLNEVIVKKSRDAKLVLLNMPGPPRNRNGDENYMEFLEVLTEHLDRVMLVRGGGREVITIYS
The assay can be described thus: KCC2 thallium transport FLIPR-based assay (Tl+ influx in HEK293 cells expressing KCC2). Type of assay: cell-based. The note with it: 90 min compound incubation at RT, thallium flux at 120 s used to determine EC50. On the procedure:
A thallium transport FLIPR-based assay was used to measure the ability of compounds to activate KCC2. KCC2 activity is assessed by measuring KCC2-dependent Tl^+ influx in a KCC2-expressing cell. The assay protocol was based on those described by Delpire et al (Proc Natl Acad Sci USA. 2009 Mar. 31; 106(13): 5383-5388) and Zhang et al (Journal of Biomolecular Screening 15(2): 2010).
KCC2 was synthesised and codon optimised by GeneArt based on the Uniprot sequence Q9H2X9. The final sequence was subcloned into pcDNA3.1.
HEK293 cells were grown in 10 layer cell stacks at 37° C., 5% CO2, in DMEM, 10% fetal calf serum and 2 mM Glutamine. The cells were detached by removing the media and washing the cell stack with 100 ml of PBS. The PBS was removed and 100 ml of 1× TrypLE was added and the cell stack returned to 37° C. for 5 min. The detached cells were then counted in a Vi Cell counter and spun for 10 min at 1250 rpm in a Sorval Legend centrifuge. The cells were diluted down in Maxcyte electroporation buffer at 4× the final concentration and spun as before. The cell pellet was resuspended at 1×10^8/cells per ml and electroporated in a Maxcyte Cl 2.2 bag on a Maxcyte STX machine via the HEK293 programme with 200 ug/ml of plasmid DNA. The cells were then allowed to recover for 30 min before adding to 500 ml of PBS and then counted again on the Vi Cell. The cells were then frozen down in planer controlled rate freeze in 90% complete media, 10% DMSO.
All reagents were dispensed using a Mulitdrop Combi unless stated otherwise. All FluXOR Invitrogen propriety buffer compositions are mentioned in tables below.
HEK293 KCC2 cells were harvested at a density of 3.33×10^5 cells/mL in complete media (DMEM, Sigma, D6546, 10% fetal calf serum and 1% Glutamax) and 30 μL per well seeded into 384-well PDL coated black-clear plates (Corning, 354663). Leave cells at RT for 20 mins to settle before incubating for 48 h at 37° C., 5% CO2. Following incubation, perform three wash steps in HBSS (Sigma, H6648) using a Biotek cell washer with the final aspiration leaving 20 μL HBSS residual volume in each well. A further 20 μL per well of thallium loading dye is then added (1 h, RT, protect from light). 5 μL of test compounds (100 μM top concentration, 1:2 dilutions, 12 point curve) were added using the FLIPR TETRA and incubated at RT for 90 min in the dark. Following compound incubation, the thallium flux response is read on FLIPR TETRA (ex. 515-575 nm) which is initiated by FLIRR TETRA dispensing 5 μL stimulus buffer into each well. Recordings are measured every 1 second for 120 seconds. Thallium flux at 120 s used to determine EC50.
Compound buffer: Assay buffer with 1 μL of bumetanide per 10 ml.
On to `C#CCCC1(CCOc2ccc(-c3ccc(Nc4nc(C5=CCOCC5)nc5c4CN(C(C)C)C5=O)cc3)cc2)N=N1` [Example 81, 4-((4′-(2-(3-(but-3-yn-1-yl)-3H-diazirin-3-yl)ethoxy)-[1,1′-biphenyl]-4-yl)amino)-2-(3,6-dihydro-2H-pyran-4-yl)-6-isopropyl-5,6-dihydro-7H-pyrrolo[3,4-d]pyrimidin-7-one], for which the EC50 stood at 2.47 µM. In other words, the single-digit micromolar range.
Turning to `CC(C)N1Cc2c(Nc3ccc(OCc4ccccc4)cc3)nc(N3CCO[C@H](C)C3)nc2C1=O` [Example 57, 4-[(4-(benzyloxy)phenyl]amino}-2-[(2R)-2-methylmorpholin-4-yl]-6-(propan-2-yl)-5,6-dihydro-7H-pyrrolo[3,4-d]pyrimidin-7-one], the EC50 came to 3.6 µM.
Next, `CC(C)N1Cc2c(Nc3ccc(-c4ccsc4)cc3)nc(N3CCOCC3)nc2C1=O` [Example 114, 2-(morpholin-4-yl)-6-(propan-2-yl)-4-{[4-(thiophen-3-yl)phenyl]amino}-5,6-dihydro-7H-pyrrolo[3,4-d]pyrimidin-7-one]: 7.3 µM.
The molecule `CC(C)N1Cc2c(Nc3ccc(-c4ccc(Cl)cc4)cc3)nc(N3CCOCC3)nc2C1=O` [Example 89, 4-[(4′-chloro[1,1′-biphenyl]-4-yl)amino]-2-(morpholin-4-yl)-6-(propan-2-yl)-5,6-dihydro-7H-pyrrolo[3,4-d]pyrimidin-7-one] returned an EC50 of 3.51 µM.
In turn, `Cc1cc(-c2nc3c(c(Nc4ccc(C5CCCCC5)cc4)n2)COC3)ccn1` [Example 95, N-(4-cyclohexylphenyl)-2-(2-methylpyridin-4-yl)-5,7-dihydrofuro[3,4-d]pyrimidin-4-amine] came in with an EC50 of 3.22 µM.
The same measure for `C[C@@H]1CN(c2nc(Nc3ccc(C4CCCCC4)cc3)c3ccc[n+]([O-])c3n2)CCO1` [Example 99, (R)-4-((4-cyclohexylphenyl)amino)-2-(2-methylmorpholino)pyrido [2,3-d]pyrimidine 8-oxide]: 3.79 µM; for `CC(C)N1Cc2c(Nc3ccc(C4CCC4)cc3)nc(N3CCOCC3)nc2C1=O` [Example 63, 4-[(4-cyclobutylphenyl)amino]-2-(morpholin-4-yl)-6-(propan-2-yl)-5,6-dihydro-7H-pyrrolo[3,4-d]pyrimidin-7-one]: 5.71 µM; for `CC(C)N1Cc2c(Nc3ccc(-c4cccs4)cc3)nc(N3CCOCC3)nc2C1=O` [Example 113, 2-(morpholin-4-yl)-6-(propan-2-yl)-4-{[4-(thiophen-2-yl)phenyl]amino}-5,6-dihydro-7H-pyrrolo[3,4-d]pyrimidin-7-one]: 4.74 µM.
For `C[C@@H]1CN(c2nc(Nc3ccc(C4CCCCC4)cc3)c3cccnc3n2)CCO1` [Example 96, N-(4-cyclohexylphenyl)-2-[(2R)-2-methylmorpholin-4-yl]pyrido[2,3-d]pyrimidin-4-amine], the EC50 stood at 2.92 µM.
With `C[C@@H]1CN(c2nc(Nc3ccc(C4CCC4)cc3)c3c(n2)C(=O)N(CCN(C)C)C3)CCO1` [Example 75, 4-[(4-cyclobutylphenyl)amino]-6-[2-(dimethylamino)ethyl]-2-[(2R)-2-methylmorpholin-4-yl]-5,6-dihydro-7H-pyrrolo[3,4-d]pyrimidin-7-one], the EC50 was determined as 3.77 µM.
As to `CC(C)N1Cc2c(Nc3ccc(C4CCCCC4)cc3)nc(N3CCOCC3CO)nc2C1=O` (stereo not drawn) [Example 32, 4-[(4-cyclohexylphenyl)amino]-2-[3-(hydroxymethyl)morpholin-4-yl]-6-(propan-2-yl)-5,6-dihydro-7H-pyrrolo[3,4-d]pyrimidin-7-one], it took 4.89 µM to reach a half-maximal effect (EC50).
Next, `CC(C)N1Cc2c(Nc3ccc(Oc4ccc(F)cc4)cc3)nc(N3CCO[C@H](C)C3)nc2C1=O` [Example 51, (R)-4-((4-(4-fluorophenoxy)phenyl)amino)-6-isopropyl-2-(2-methylmorpholino)-5,6-dihydro-7H-pyrrolo[3,4-d]pyrimidin-7-one]: 0.973 µM.
